pIC50: −log10 of the molar value. Read-outs that look alike come from different tables or passages of the source.
Tests used:
[1] = system: MIA PaCa-2 cells (K-Ras G12C); assay: Ras-SOS cellular growth inhibition assay (CellTiter-Glo, 3D); format: cell-based; conditions: Homo sapiens
Procedure, shortened: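 Growth read by CellTiter-Glo luminescence about 5 days after dosing with 3-fold dilutions (9 points), added one day post-seeding. Cells: MIA PaCa-2, 3D culture on ultra-low-attachment surface, medium DMEM/Ham's F12 plus 10% FCS and 2.5% horse serum; IC50 by four-parameter fit.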

[2] = system: NCI-H1975 cells (EGFR T790M L858R); assay: EGFR-SOS cellular inhibition assay (CellTiter-Glo, 3D); format: cell-based; conditions: Homo sapiens
[3] = molecular target: SOS1 (Homo sapiens (Human), UniProt Q07889); assay: Ras-SOS interaction assay (HTRF); format: biochemical
Sequence of SOS1 (Q07889 564-1049): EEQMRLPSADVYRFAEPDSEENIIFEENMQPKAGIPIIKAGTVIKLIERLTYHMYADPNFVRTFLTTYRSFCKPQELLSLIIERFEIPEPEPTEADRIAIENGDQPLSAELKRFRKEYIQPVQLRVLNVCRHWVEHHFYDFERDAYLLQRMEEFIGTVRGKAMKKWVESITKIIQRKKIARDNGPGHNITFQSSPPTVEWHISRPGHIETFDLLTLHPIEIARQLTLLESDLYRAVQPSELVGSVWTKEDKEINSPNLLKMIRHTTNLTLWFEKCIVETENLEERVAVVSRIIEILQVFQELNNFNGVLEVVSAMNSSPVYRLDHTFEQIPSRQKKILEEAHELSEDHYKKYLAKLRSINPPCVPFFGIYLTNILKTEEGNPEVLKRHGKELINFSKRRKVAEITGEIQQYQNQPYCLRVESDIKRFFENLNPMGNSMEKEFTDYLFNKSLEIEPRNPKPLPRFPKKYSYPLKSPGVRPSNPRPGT

[4] = MIA PaCa-2, 120 h, MIA PaCa-2, 3D proliferation, about 5 days, read-out: Bio-Cell-Prolif-3D (MiaPaca2 IC50)
[5] = MIA PaCa-2, MIA PaCa-2, read-out: IC50 in inhibiting MIA PaCa-2 cell growth
[6] = 120 h, NCI-H1975, 3D proliferation, about 5 days, read-out: Bio-Cell-Prolif-3D (H1975 IC50)
[7] = NCI-H1975, EGFR T790M L858R, read-out: IC50 in inhibiting growth of NCI-H1975 cell line
[8] = K-RasG13D utilized, read-out: IC50 inhibition of SOS
[9] = K-RasG13D, read-out: IC50 value against SOS1

SMILES	pIC50 [1, 4]	pIC50 [1, 5]	pIC50 [2, 6]	pIC50 [2, 7]	pIC50 [3, 8]	pIC50 [3, 9]
COc1nc2ncnc(N[C@H](C)c3cccc(C(C)(F)F)c3F)c2cc1N1CCS(=O)(=O)CC1 [Compound 292, (R)-4-(4-((1-(3-(1,1-difluoroethyl)-2-fluorophenyl)ethyl)amino)-7-methoxypyrido[2,3-d]pyrimidin-6-yl)thiomorpholine 1,1-dioxide]	≥ 6.00	> 6.30	≥ 6.00	> 6.30	> 7.00	> 7.30
Cc1nc(N[C@H](C)c2cccc(C(F)(F)C3CCN(C(C)C)CC3)c2)c2cc(N3CCN(C(C)C)CC3)c(Cl)nc2n1 [Compound 293, (R)-7-chloro-N-(1-(3-(difluoro(1-isopropylpiperidin-4-yl)methyl)phenyl)ethyl)-6-(4-isopropylpiperazin-1-yl)-2-methylpyrido[2,3-d] pyrimidin-4-amine]	≥ 6.00	> 6.30	≥ 6.00	> 6.30	> 7.00	> 7.30
Cc1nc(N[C@H](C)c2cccc(C(F)F)c2F)c2cc(C3(C#N)CC3)c(N3CCN(C)CC3)nc2n1 [Compound 295, (R)-1-(4-((1-(3-(difluoromethyl)-2-fluorophenyl)ethyl)amino)-2-methyl-7-(4-methylpiperazin-1-yl)pyrido[2,3-d]pyrimidin-6-yl)cyclopropanecarbonitrile]	≥ 6.00	> 6.30	≥ 6.00	> 6.30	> 7.00	> 7.30
Cc1nc(N[C@H](C)c2cccc(C(F)F)c2F)c2cc(C3(C#N)CC3)c(OC[C@@H]3CC(F)(F)CN3C)nc2n1 [Compound 296, 1-(7-(((S)-4,4-difluoro-1-methylpyrrolidin-2-yl)methoxy)-4-(((R)-1-(3-(difluoromethyl)-2-fluorophenyl)ethyl)amino)-2-methylpyrido[2,3-d]pyrimidin-6-yl)cyclopropane-1-carbonitrile]	5.00 to 6.00		≥ 6.00		> 7.00	
Cc1nc(N[C@H](C)c2cccc(C(F)F)c2F)c2cc(C3(C#N)CC3)c(O[C@H]3CCOC3)nc2n1 [Compound 297, 1-(4-(((R)-1-(3-(difluoromethyl)-2-fluorophenyl)ethyl)amino)-2-methyl-7-(((S)-tetrahydrofuran-3-yl)oxy)pyrido[2,3-d]pyrimidin-6-yl)cyclopropane-1-carbonitrile]	5.00 to 6.00		≥ 6.00	> 6.30		> 7.30
Cc1nc(N[C@H](C)c2cccc(C(F)F)c2F)c2cc(C3(C#N)CC3)c(OCC3COC3)nc2n1 [Compound 299, (R)-1-(4-((1-(3-(difluoromethyl)-2-fluorophenyl)ethyl)anrino)-2-methyl-7-(oxetan-3-ylmethoxy)pyrido[2,3-d]pyrimidin-6-yl)cyclopropane-1-carbonitrile]	5.00 to 6.00		≥ 6.00		> 7.00	> 7.30
COc1nc2nc(C)nc(N[C@H](C)c3cccc(C(F)(F)F)c3F)c2cc1C1CCN(C(=O)[C@@H]2COCCO2)CC1 [Compound 301, ((S)-1,4-dioxan-2-yl)(4-(4-(((R)-1-(2-fluoro-3-(trifluoromethyl)phenyl)ethyl)amino)-7-methoxy-2-methylpyrido[2,3-d]pyrimidin-6-yl)piperidin-1-yl)methanone]	5.00 to 6.00		≥ 6.00	> 6.30	> 7.00	> 7.30
COc1nc2nc(C)nc(N[C@H](C)c3cccc(C(F)(F)F)c3F)c2cc1C1CCN(C(=O)CN(C)C)CC1 [Compound 302, (R)-2-(dimethylamino)-1-(4-(4-((1-(2-fluoro-3-(trifluoromethyl)phenyl)ethyl)amino)-7-methoxy-2-methylpyrido[2,3-d]pyrimidin-6-yl)piperidin-1-yl)ethan-1-one]	≥ 6.00		≥ 6.00	> 6.30	> 7.00	> 7.30
COc1nc2nc(C)nc(N[C@H](C)c3cccc(C(F)(F)F)c3F)c2cc1C1CCN(C(=O)CO)CC1 [Compound 304, (R)-1-(4-(4-((1-(2-fluoro-3-(trifluoromethyl)phenyl)ethyl)amino)-7-methoxy-2-methylpyrido[2,3-d]pyrimidin-6-yl)piperidin-1-yl)-2-hydroxyethan-1-one]	≥ 6.00	> 6.30	≥ 6.00	> 6.30	> 7.00	> 7.30
COc1nc2nc(C)nc(N[C@H](C)c3cccc(C(F)(F)CO)c3F)c2cc1N1CCS(=O)(=O)CC1 [Compound 307, (R)-4-(4-((1-(3-(1,1-difluoro-2-hydroxyethyl)-2-fluorophenyl)ethyl)amino)-7-methoxy-2-methylpyrido[2,3-d]pyrimidin-6-yl)thiomorpholine 1,1-dioxide]	≥ 6.00	> 6.30	≥ 6.00		> 7.00	> 7.30
COc1nc2nc(C)nc(N[C@H](C)c3cccc(C(F)(F)F)c3F)c2cc1C1CCN(C)CC1 [Compound 309, (R)-N-(1-(2-fluoro-3-(trifluoromethyl)phenyl)ethyl)-7-methoxy-2-methyl-6-(1-methylpiperidin-4-yl)pyrido[2,3-d]pyrimidin-4-amine]	≥ 6.00		≥ 6.00	> 6.30	> 7.00	> 7.30
COc1nc2nc(C)nc(N[C@H](C)c3cccc(C(F)(F)F)c3F)c2cc1N1CCN(C(=O)CN(C)C)CC1 [Compound 312, (R)-2-(dimethylamino)-1-(4-(4-((1-(2-fluoro-3-(trifluoromethyl)phenyl)ethyl)amino)-7-methoxy-2-methylpyrido[2,3-d]pyrimidin-6-yl)piperazin-1-yl)ethan-1-one]	≥ 6.00	> 6.30	≥ 6.00	> 6.30	> 7.00	> 7.30
COc1nc2nc(C)nc(N[C@H](C)c3cccc(C(F)(F)F)c3F)c2cc1N1CCN(C(=O)CO)CC1 [Compound 313, (R)-1-(4-(4-((1-(2-fluoro-3-(trifluoromethyl)phenyl)ethyl)amino)-7-methoxy-2-methylpyrido[2,3-d]pyrimidin-6-yl)piperazin-1-yl)-2-hydroxyethan-1-one]	≥ 6.00	> 6.30	≥ 6.00	> 6.30	> 7.00	> 7.30
CCN1CCN(c2cc3c(N[C@H](C)c4cccc(C(F)F)c4F)nc(C)nc3nc2OCCOC)CC1 [Compound 314, (R)-N-(1-(3-(difluoromethyl)-2-fluorophenyl)ethyl)-6-(4-ethylpiperazin-1-yl)-7-(2-methoxyethoxy)-2-methylpyrido[2,3-d] pyrimidin-4-amine]	≥ 6.00	> 6.30	≥ 6.00		> 7.00	> 7.30
COc1nc2ncnc(N[C@H](C)c3cccc(C(F)F)c3F)c2cc1C1CCS(=O)(=O)CC1 [Compound 315, (R)-4-(4-((1-(3-(difluoromethyl)-2-fluorophenyl)ethyl)amino)-7-methoxypyrido[2,3-d]pyrimidin-6-yl)tetrahydro-2H-thiopyran 1,1-dioxide]	5.00 to 6.00		≥ 6.00	> 6.30	> 7.00	
